Measured values published in patent US7947669B2, “Agent for improving insulin resistance” (Morinaga Milk Industry Co., Ltd., priority 2005, dated 2011).

Tests used:
Format in all cases: in vivo
[1] = test system: AKR mice in which insulin resistance is induced by feeding with a high-fat diet; test: Level of free fatty acid in serum of high-fat diet AKR mice; details: for Test Sample/Negative sample (free fatty acid): serum free fatty acid relative to negative sample, 60th day, 25 μg/kg oral once a day; for Free fatty acid: serum, fasting, 60th day of oral administration 25 μg/kg of body weight once a day, AKR mice on high-fat diet
Description: Each of 9,19-cyclolanostan-3-ol and 24-methylene-9,19-cyclolanostan-3-ol produced in Preparation Example 3 was dissolved in DMSO, and each concentration was adjusted to 1 μg/ml with distilled water to thereby prepare Test Samples 1 and 2.
These mice were divided into groups, each consisting of 8 mice.

TNF-α = test: Production quantity of TNF-α of adipose tissues from treated high-fat diet AKR mice (ELISA); details: 60th day, 25 μg/kg oral once a day; for inhibitory effect on the production of TNF-α compared with negative sample: adipose tissue, Tukey-Kramer's test; for TNF-α: culture supernatant of epididymal fat tissue after 1 hour culture
Description: (§1) This example was performed in order to evaluate an effect of the agent for improving insulin resistance of the present invention on production quantities of TNF-α and MCP-1 in each cell of adipose tissue by using AKR mice in which insulin resistance is induced by feeding with a high-fat diet.
(§2) In Example 2, the same Test Samples 1, 2 and the negative sample as those prepared in Example 1 were used.
(§3) These mice were divided into groups, each consisting of 8 mice. […] After 1 hour of the culture, culture supernatants were collected, and concentrations of TNF-α and MCP-1 in the culture supernatants were measured by ELISA method (Biosource).

MCP-1 = test: Production quantity of MCP-1 of adipose tissues from treated high-fat diet AKR mice (ELISA); details: 60th day, 25 μg/kg oral once a day; for inhibitory effect on the production of MCP-1 compared with negative sample: adipose tissue, Tukey-Kramer's test; for MCP-1: culture supernatant of epididymal fat tissue after 1 hour culture
Description: as §1, §2, §3

[2] = test system: AKR mice in which insulin resistance is induced by feeding with a high-fat diet; test: Insulin tolerance test in high-fat diet AKR mice; details: 45th day, 25 μg/kg oral once a day, 4 h fast, human insulin 0.75 U/Kg i.p., up to 60 minutes (FIG. 1)
Description: This example was performed in order to evaluate an enhancing effect of the agent for improving insulin resistance of the present invention on insulin sensitivity by performing an insulin tolerance test using AKR mice in which insulin resistance is induced by feeding with a high-fat diet.
In Example 3, the same Test Samples 1, 2 and the negative sample as those prepared in Examples 1 and 2 were used.
These mice were divided into groups, each consisting of 8 mice. […] In the present example, the insulin tolerance test was performed in such a manner that: the mice were fasted for 4 hours, and were then intraperitoneally administered with 0.75 U/Kg of body weight of a human insulin (Eli Lily and Company); and changes with time in blood glucose level were measured from the initiation of the administration of the insulin to after 60 minutes later.

Q: Which “Test Sample/Negative sample (free fatty acid)” value [1] does the source give for CC(C)CCCC(C)C1CCC2(C)C3CCC4C(C)(C)C(O)CCC45CC35CCC12C (centres unmarked) [Test Sample 1, 9,19-cyclolanostan-3-ol] here?
A: 81.1%

Q: What about the Free fatty acid [1] of the same molecule?
A: 1.20 ± 0.38 mEq/l

Q: What about the “inhibitory effect on the production of TNF-α compared with negative sample” value (TNF-α) of the same molecule?
A: significant inhibitory effects

Q: And the TNF-α (TNF-α)?
A: 29.80 ± 2.58 pg/mL

Q: And the “inhibitory effect on the production of MCP-1 compared with negative sample” value (MCP-1)?
A: significant inhibitory effects

Q: And the MCP-1 (MCP-1)?
A: 89.83 ± 6.16 pg/mL

Q: And the “change in blood glucose level after insulin administration” value [2]?
A: rapid decrease in blood glucose levels

Q: How did the “Test Sample/Negative sample (free fatty acid)” value [1] turn out when C=C(CCC(C)C1CCC2(C)C3CCC4C(C)(C)C(O)CCC45CC35CCC12C)C(C)C (centres unmarked) [Test Sample 2, 24-methylene-9,19-cyclolanostan-3-ol] was run?
A: 81.1%

Q: What about the Free fatty acid [1] of the same molecule?
A: 1.20 ± 0.25 mEq/l

Q: What about the “inhibitory effect on the production of TNF-α compared with negative sample” value (TNF-α) of the same molecule?
A: significant inhibitory effects

Q: And the TNF-α (TNF-α)?
A: 33.59 ± 0.59 pg/mL

Q: And the “inhibitory effect on the production of MCP-1 compared with negative sample” value (MCP-1)?
A: significant inhibitory effects

Q: What about the MCP-1 (MCP-1) of the same molecule?
A: 99.32 ± 7.80 pg/mL

Q: What about the “change in blood glucose level after insulin administration” value [2] of the same molecule?
A: rapid decrease in blood glucose levels
